pIC50: −log10 of the molar value. Like-named read-outs stand apart in the source and are kept apart here.
How the values were obtained:
[1] = biological target: T1, soluble epoxide hydrolase (sEH) (Homo sapiens, UniProt P34913); assay: in vitro biochemical activity test, sEH enzyme inhibition with EET substrate (LC-MS); conditions: 90 min pre-incubation at room temperature, 60 min reaction
T1 sequence (P34913 1-555): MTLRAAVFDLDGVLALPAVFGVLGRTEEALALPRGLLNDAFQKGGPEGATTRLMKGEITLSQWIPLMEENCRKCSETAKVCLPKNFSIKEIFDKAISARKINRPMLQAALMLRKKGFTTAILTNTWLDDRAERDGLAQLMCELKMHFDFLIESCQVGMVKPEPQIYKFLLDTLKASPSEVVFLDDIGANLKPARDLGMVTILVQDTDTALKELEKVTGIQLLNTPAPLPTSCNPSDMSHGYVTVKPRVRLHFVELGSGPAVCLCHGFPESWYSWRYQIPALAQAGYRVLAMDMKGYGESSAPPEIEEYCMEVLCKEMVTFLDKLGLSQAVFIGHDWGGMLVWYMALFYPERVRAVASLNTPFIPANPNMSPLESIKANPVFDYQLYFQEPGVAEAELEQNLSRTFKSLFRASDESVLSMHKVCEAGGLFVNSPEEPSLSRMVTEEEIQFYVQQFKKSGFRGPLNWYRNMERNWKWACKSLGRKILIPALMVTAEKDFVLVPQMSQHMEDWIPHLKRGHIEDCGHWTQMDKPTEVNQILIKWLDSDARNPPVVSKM

[2] = in vivo pharmacokinetics in male ICR mice, IV and PO; set-up: species or system mouse (male ICR mice); conditions: for clearance / half-life / AUC: mouse plasma; for clearance: read-out: intravenous injection administration (IV) C1; for AUC: read-out: Oral administration by gavage (PO) AUC; for bioavailability: plasma, mouse, PO 2 mpk, IV 1 mpk
Text: This example relates to the evaluation of the pharmacokinetic properties of (hetero)aryl imidazole compounds containing an aromatic substituent. Specifically, this experiment evaluated the in vivo pharmacokinetic properties of some of the (hetero)aryl imidazole compounds with an aromatic substituent synthesized in Example 1 in mice under intravenous (IV) and oral (PO) administration.
The animals used in this experiment were male ICR mice, which were obtained from Beijing Weitonglihua Experimental Animal Technology Co., Ltd. IV/PO administration was performed with a single drug or a combination of drugs (Cassette, no more than five drugs), the solvent was 5% DMSO+10% Solutol+85% Saline, the compound concentration was 0.2 mg/mL, and the IV/PO administration volume was 5/10 mL/kg, respectively. The animals in the oral administration group were fasted overnight before administration and fed 4 hours after administration. After administration, blood was collected from the cheek at the set time of the experiment. About 50 μL was collected for each sample and anticoagulated with sodium heparin. After collection, the blood was placed on wet ice and centrifuged within 1 hour to separate the plasma (6000 rpm, 3 minutes, 2-8° C.). Plasma samples were stored at −80° C. before analysis. The plasma samples were diluted and analyzed by LC-MS/MS to determine the blood drug concentration data in the samples at different time points, and Phoenix WinNonlin 8.2.0 was used to calculate the pharmacokinetic parameters.

[3] = 1 mg/kg, IV, 1 mpk, read-out: intravenous injection administration (IV) T1/2 (converted)
[4] = 2 mg/kg, PO, 2 mpk, read-out: Oral administration by gavage (PO) T1/2 (converted)

## Cc1nc(N)ncc1-c1cc2nc(-c3ccc(C(F)(F)F)cc3)[nH]c2c(F)c1F [Compound 8, 5-(4,5-difluoro-2-(4-(trifluoro-methyl)phenyl)-1H-benzo[d]imidazol-6-yl)-4-methylpyr-imidine-2-amine]
[1]
  pIC50: 10.19
[2]; 1 mg/kg, IV, 1 mpk
  clearance: 1.3 mL/min/kg
[2]; [3]
  half-life: 5.9 h
[2]; 2 mg/kg, PO, 2 mpk
  AUC: 19600 ng·h/mL
[2]; [4]
  half-life: 6.4 h
[2]; 2 mg/kg
  bioavailability: 76%

## Nc1cc(Cl)c(-c2cc3[nH]c(-c4ccc(C(F)(F)F)cc4)nc3cc2F)cn1 [Compound 61, 2-(4-(trifluoromethyl)phenyl)-6-(6-amino-4-chloropyridin-3-yl)-5-fluoro-1H-benzo[d] imidazole]
[2]; 1 mg/kg, IV, 1 mpk
  clearance: 1 mL/min/kg
[2]; [3]
  half-life: 8.5 h
[2]; 2 mg/kg, PO, 2 mpk
  AUC: 26100 ng·h/mL
[2]; [4]
  half-life: 10.2 h
[2]; 2 mg/kg
  bioavailability: 83%

Source: US20260297065A1, “AROMATIC SUBSTITUENT-CONTAINING (HETERO) ARYL-IMIDAZOLE COMPOUND, AND PREPARATION METHOD THEREFOR AND USE THEREOF” (OPEN SOURCE THERAPEUTICS, priority 2022, published 2026)
